Laboratory results: patent US20200339544A1 (JOINT STOCK COMPANY "BIOCAD", priority 2017, published 2020)
Where two headings read alike, the source gives them in different places.

Key:
[1] = biological target: T1, DM EGFR (DoubleMutantEGFR, L828R/T790M) (Homo sapiens, UniProt P00533, L858R/T790M); assay: Inhibition of DM EGFR kinase activity (ADP-Glo); assay type: biochemical; conditions: for IC50: inhibition of kinase activity, EGFR DM (L828R/T790M); for SI, IC50(WT)/IC50(DM): selectivity index, kinase EGFR WT vs EGFR DM
T1 construct: purchased SignalChem
Procedure: (§1) To assess IC50 values of the compounds disclosed herein, a biochemical assay of inhibition of kinase activity in a non-cellular system and a functional cellular anti-proliferation assay were used.
(§2) To assess inhibition of WT EGFR (Wild-Type EGFR), DM EGFR (DoubleMutantEGFR, L828R/T790M) kinase activity, SignalChem kinase system and ADP-Glo™ Kinase Assay (V9102, Promega) detection kit were used.
(§3) The measurements were carried out in a 25 μL reaction volume using a 96-well plate. […] The solution of 0.5 mg/mL peptide substrate and 50 μM ATP in the same buffer were added; the solution was incubated for 180 minutes at 37° C. To detect the amount of ATP taken up during the kinase reaction, the ADP Glo Detection Kit (V9102, Promega) was used. The luminescence was measured with the Infinite M200Pro plate spectrophotometer (Tecan, Switzerland). IC50 values were calculated using Magellan 7.2 software (Tecan, Switzerland) approximating experimental points by four-parameter logistic model with the optimization by Levenberg-Marquardt (Table 14).

[2] = tested on: A549 (lung adenocarcinoma, WT); assay: Antiproliferative activity on A549 cells (Alamar Blue); assay type: cell-based; conditions: Homo sapiens, antiproliferative test
Procedure: (§4) Antiproliferative activity of EGFR inhibitors (Tables 15 and 16) was measured in cell-based bioassay on continuous epithelial cell cultures: A549 (lung adenocarcinoma, ATCC® CRM-CCL-185™—WT), HCC827 (lung adenocarcinoma, ATCC® CRL-2868™—SM (SingleMutantEGFR, exon19delE746-A750)) and H1975 (lung adenocarcinoma, ATCC® CRL-5908™—DM (DoubleMutantEGFR, L828R/T790M)) using cell viability reagent Alamar Blue (ThermoFisher, # DAL1100). Cells were cultured in 10% FBS-supplemented (Gibco, #16140071) RPMI-1640 (PanEco, S330p) for at least 1 passage after thawing, washed with PBS and passaged in 96-well culture plates (3599, Corning) with RPMI-1640 growth medium supplemented with 2% FBS in an amount of 5*10^3 cells/well for A549, 10*10^3 cells/well for HCC827 and 15*10^3 cells/well for H1975 in 100 μL, and incubated at 37° C. in an incubator (Thermo Forma, USA) under 5% of CO2 for 16-18 h for cell attachment.
(§5) The test compounds were dissolved in DMSO in the selected range of concentrations and transferred to RPMI-1640 medium (PanEco, S330p) supplemented with 2% FBS. After adding 50 μl of the prepared dilutions to the cells, the incubation mixture contained the final concentrations of the test substances and no more than 1% DMSO. The plates were Incubated at 37° C. for 72 h. After incubation, 15 μl of Alamar Blue vital dye (ThermoFisher, # DAL1100) was added to each well. The plates were shaken on an orbital shaker (Biosan, Latvia) and further incubated for 3-5 h in a CO2 incubator (Thermo Forma, USA). Number of living cells was estimated using a plate spectrophotometer Infinite M200Pro, (Tecan, Switzerland) measuring fluorescent signal at the excitation wavelength (λEx) of 540 nm and emission wavelength (λEm) of 590 nm.
IC50 was calculated using Magellan 7.2 software (Tecan, Switzerland) approximating experimental points by four-parameter logistic model with the optimization by Levenberg-Marquardt.
(§6) The ratio between IC50 for cell lines containing wild-type EGFR (A549) and IC50 for cell lines containing target mutation L828R/T790M (H1975) is the selectivity index (SI): […]

[3] = General cytotoxicity on HepG2 cells; assay type: cell-based; conditions: human; general cytotoxicity, HepG2 cells, 72 hours, average of several tests
Procedure: (§7) The CC50 values were determined in the test for General cytotoxicity on HepG2 cells (rhepatocellular carcinoma, ATCC® HB-8065™) (Table 16). The cells were subcultured in DMEM medium (PanEco, S420p) supplemented with 10% FBS (Gibco, #16140071) for at least 1 passage after thawing, washed with PBS and passaged in 96-well culture plates (3599, Corning) at a concentration of 2*10^4 cells/100 μL per well, and incubated for 16-18 h. The test substances were titrated in DMSO and transferred to DMEM (PanEco, S420p) medium supplemented with 2% FBS, added to the cells and incubated at 37° C. for 72 hours; viability of the cells was then assessed using Alamar Blue dye (ThermoFisher, # DAL1100). CC50 was determined similarly to IC50.
(§8) The ratio between CC50 for HepG2 cell line and IC50 for H1975 cell line is the therapeutic index (TI): […]

[4] = tested on: HepG2 cells; assay: General cytotoxicity on HepG2 cells; assay type: cell-based; conditions: therapeutic index, CC50 HepG2 / IC50 H1975
Procedure: as §7, §8

[5] = tested on: H1975 (lung adenocarcinoma, DM, L828R/T790M); assay: Antiproliferative activity on H1975 cells (Alamar Blue); assay type: cell-based; conditions: for IC50: Homo sapiens, NCI-H1975, H1975 cells; for SI IC50(A549)/IC50(DM): selectivity index, A549 vs H1975 cells
Procedure: as §4, §5
IC50 was calculated using Magellan 7.2 software (Tecan, Switzerland) approximating experimental points by four-parameter logistic model with the optimization by Levenberg-Marquardt. […]
as §6

[6] = biological target: T2, WT EGFR (Wild-Type EGFR) (Homo sapiens, UniProt P00533); assay: Inhibition of WT EGFR kinase activity (ADP-Glo); assay type: biochemical
T2 construct: purchased SignalChem
Procedure: as §1, §2, §3

[7] = Chemical stability in human blood plasma; assay type: in vitro ADME; conditions: pooled human blood plasma; 10 μm; 4 hours at 37° C.; substance amount remaining
Procedure: 2) Determination of chemical stability in human blood plasma.
Determination of stability in human blood plasma was performed using pooled human blood plasma taken from ten healthy donors. The initial candidate solution (10 mM in DMSO) was diluted with pooled blood plasma to a concentration of 10 μm (test solution). The test solution was incubated in a dry block thermostat for 4 hours at 37° C. HPLC with Agilent 1200 liquid chromatography system (Agilent, USA) was employed to determine peak areas of the compounds in test samples, said peak areas corresponding to the initial test time (prior to incubation) and the final test time (after incubation in a dry block thermostat for 4 hours at 37° C.), proteins were preliminarily precipitated with acetonitrile. We used gradient elution (1 mL/min flow rate). Substance amount in % in a sample after thermostatting was determined.
The stability of the compounds was estimated.

[8] = Enzyme stability in human liver S9 fractions; assay type: in vitro ADME; conditions: 0.5 mg/mL pooled human liver S9 fractions; 10 μM compound; 37° C.; pH 7.4; read-out: Stability in liver S9 fractions, Clint
Procedure: Determination of enzyme stability.
Measuring of candidate enzyme stability enabled estimation of the stability of the compounds towards the action of liver enzymes.
Enzyme degradation rate was measured by incubating the reaction mixture in a dry block thermostat at 37° C., said reaction mixture comprising 0.5 mg/mL of pooled human liver S9 fractions (XenoTech, USA, cat # H0610), 10 μM compound, 2 mM β-nicotinamide adenine dinucleotide (Carbosynth, UK, cat # NN10871) and 4 mM magnesium chloride in 0.1 M sodium-phosphate buffer, pH=7.4. The reaction was quenched with acetonitrile (100 μL of acetonitrile/100 μL of the reaction mixture). After quenching, the samples were centrifuged at 10000 rpm for 10 minutes. Supernatant fluid was tested by chromatographic technique using Agilent1200 (Agilent, USA). We used gradient elution (1 mL/min flow rate). A graph of the logarithm of substance's peak area as a function of time was made. The dependent factor of the line corresponded to the elimination rate constant K based on which the drug's half-life T½ and intrinsic clearance CLint were calculated:
Based on the data obtained, candidate enzyme stability in human liver S9 fractions was determined (see Table 11).

[9] = average values obtained in several tests, Table 16, read-out: H1975 (DM) IC50
[10] = antiproliferative test, Table 15, read-out: IC50 H1975 (DM)

Compound	IC50 [1] [nM]	SI, IC50(WT)/IC50(DM) [1]	IC50 [2] [nM]	CC50 at 72 h [3] [nM]	TI, CC50/IC50 [4]	IC50 [5, 9] [nM]	IC50 [5, 10] [nM]	SI IC50(A549)/IC50(DM) [5]	IC50 [6] [nM]	Stability in blood plasma, % [7] [%]	Intrinsic clearance in human liver S9 fractions at 10 µM [8] [µL/min/mg]
C=CC(=O)Nc1cc(Nc2cc(C(=O)c3ccc(OC)cc3OC)ccn2)c(OC)cc1N(C)CCN(C)C [EGFR_3365_87, N-(5-((4-(2,4-dimethoxybenzoyl)pyridin-2-yl)amino)-2-((2-(dimethylamino)ethyl)(methyl)amino)-4-methoxyphenyl)acrylamide]	2.75	24.50	8020	19500	338	57.6	57.6	139	67.4	73.3	11.6
C=CC(=O)Nc1cc(Nc2cc(C(=O)c3ccccc3OC)ccn2)c(OC)cc1N(C)CCN(C)C [EGFR_3365_88, N-(2-((2-(dimethylamino)ethyl)(methyl)amino)-4-methoxy-5-((4-(2-methoxybenzoyl)pyridin-2-yl)amino)phenyl)acrylamide]	5.09	15.37	14900	26900	429	62.6	62.6	238	78.2	68.2	17
C=CC(=O)Nc1cc(Nc2cc(C(=O)c3ccc(OCCOC)cc3)ccn2)c(OC)cc1N(C)CCN(C)C [EGFR_3365_93, N-(2-((2-(dimethylamino)ethyl)(methyl)amino)-4-methoxy-5-((4-(4-(2-methoxyethoxy)benzoyl)pyridin-2-yl)amino)phenyl) acrylamide]	< 1	>41.48	9150	23600	227	104	104	88	41.5	96.3	19.5
C=CC(=O)Nc1cc(Nc2nccc(C(=O)c3ccc(OCCC)cc3OC)n2)c(OC)cc1N(C)CCN(C)C [EGFR_3365_101, N-(2-((2-(dimethylamino)ethyl)(methyl)amino)-4-methoxy-5-((4-(2-methoxy-4-propoxybenzoyl)pyrimidin-2-yl)amino)phenyl)acrylamide]	2.54	11.55	8320	16000	1238	12.9	12.9	645	29.3	99.2	21.3
C=CC(=O)Nc1cc(Nc2nccc(C(=O)c3ccc(OC(C)C)cc3OC)n2)c(OC)cc1N(C)CCN(C)C [EGFR_3365_103, N-(2-((2-(dimethylamino)ethyl)(methyl)amino)-5-((4-(4-isopropoxy-2-methoxybenzoyl)pyrimidin-2-yl)amino)-4-methoxyphenyl) acrylamide]	2.14	10.60	12600	29400	2232	13.2	13.2	954	22.6	96.2	20.4
C=CC(=O)Nc1cc(Nc2nccc(C(=O)c3ccc(OC)cc3OC(C)C)n2)c(OC)cc1N(C)CCN(C)C [EGFR_3365_104]	6.42	17.61	3780	18700	73	258	258	15	113	77.2	21.8
C=CC(=O)Nc1cc(Nc2nccc(C(=O)c3ccc(NCCOC)cc3)n2)c(OC)cc1N(C)CCN(C)C [EGFR_3365_105, N-(2-((2-(dimethylamino)ethyl)(methyl)amino)-4-methoxy-5-((4-(4-((2-methoxyethyl)amino)benzoyl)pyrimidin-2-yl)amino)phenyl)acrylamide]	2.93	37.17	84100	45600	2114	21.6	21.6	3898	109	89.4	11.3
